ChEMBL document CHEMBL4417631, “Oral peptide inhibitors of interleukin-23 receptor and their use to treat inflammatory bowel diseases” (2017)

Key:
[1] = Half life in simulated gastric fluid at 20 uM by LC-MS/MS analysis; format: ADME
[2] = Half life in simulated intestinal fluid at 20 uM by LC-MS/MS analysis; format: ADME
[3] = target: T1, Interleukin-23 receptor (Homo sapiens, UniProt Q5VWK5); assay: Inhibition of interleukin-23 receptor in human DB cells assessed as reduction in IL-23-stimulated STAT3 phosphorylation incubated for 30 mins by HTRF assay; format: cell-based
T1 sequence (Q5VWK5 whole entry): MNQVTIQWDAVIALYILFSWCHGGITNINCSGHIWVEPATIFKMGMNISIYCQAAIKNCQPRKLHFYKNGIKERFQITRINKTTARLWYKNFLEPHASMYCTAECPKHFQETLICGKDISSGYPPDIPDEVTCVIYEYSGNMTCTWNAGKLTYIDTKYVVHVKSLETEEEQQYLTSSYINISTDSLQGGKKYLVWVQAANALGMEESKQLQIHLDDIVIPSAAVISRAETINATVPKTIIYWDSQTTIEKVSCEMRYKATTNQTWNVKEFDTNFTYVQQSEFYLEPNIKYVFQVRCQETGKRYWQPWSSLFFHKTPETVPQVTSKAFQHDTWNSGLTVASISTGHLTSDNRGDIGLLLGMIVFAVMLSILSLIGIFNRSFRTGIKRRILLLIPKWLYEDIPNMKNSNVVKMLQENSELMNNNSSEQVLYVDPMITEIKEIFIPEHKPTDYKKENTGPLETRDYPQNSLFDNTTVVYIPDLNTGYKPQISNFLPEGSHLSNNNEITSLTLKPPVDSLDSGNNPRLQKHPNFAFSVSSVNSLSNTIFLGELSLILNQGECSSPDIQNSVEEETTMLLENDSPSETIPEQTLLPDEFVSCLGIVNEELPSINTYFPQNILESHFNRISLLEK

[4] = target: T1, Interleukin-23 receptor; assay: Inhibition of interleukin-23 binding to human interleukin-23 receptor incubated for 2 hrs by competitive binding ELISA
[5] = Inhibition of interleukin-23 binding to rat interleukin-23 receptor incubated for 2 hrs by competitive binding ELISA

| half-life at 20 µM [1] [h] | half-life at 20 µM [2] [h] | IC50 [3] [nM] | IC50 [4] [nM] | IC50 [5] [nM] | SMILES |
| --- | --- | --- | --- | --- | --- |
| > 6 | > 6 | – | – | – | COc1ccc(C[C@H](NC(=O)[C@@H](NC(=O)[C@H](CCC(N)=O)NC(=O)[C@H](Cc2c[nH]c3ccccc23)NC(=O)[C@@H](NC(=O)[C@H](CC(N)=O)NC(=O)[C@@H](NC(C)=O)C(C)(C)S)[C@@H](C)O)C(C)(C)S)C(=O)N[C@@H](Cc2ccc3ccccc3c2)C(=O)NC2(C(=O)N[C@@H](CCCCNC(C)=O)C(=O)N[C@@H](CC(N)=O)C(=O)N[C@@H](CC(N)=O)C(N)=O)CCOCC2)cc1 |
| < 1 | 1 to 2 | < 10 | – | – | CC(=O)N[C@H](C(=O)N[C@@H](CC(N)=O)C(=O)N[C@H](C(=O)N[C@@H](Cc1c[nH]c2ccccc12)C(=O)N[C@@H](CCC(N)=O)C(=O)N[C@H](C(=O)N[C@@H](Cc1ccc(OCCN)cc1)C(=O)N[C@@H](Cc1ccc2ccccc2c1)C(=O)N[C@@H](CCC(C)C)C(=O)N[C@@H](CCC(=O)O)C(=O)N[C@@H](CC(N)=O)C(=O)N[C@@H](C)C(N)=O)C(C)(C)S)[C@@H](C)O)C(C)(C)S |
| > 6 | > 6 | – | – | – | COc1ccc(C[C@H](NC(=O)[C@@H](NC(=O)[C@H](CCC(N)=O)NC(=O)[C@H](Cc2c[nH]c3ccccc23)NC(=O)[C@@H](NC(=O)[C@H](CC(N)=O)NC(=O)[C@@H](NC(C)=O)C(C)(C)S)[C@@H](C)O)C(C)(C)S)C(=O)N[C@@H](Cc2ccc3ccccc3c2)C(=O)N[C@@](C)(CC(C)C)C(=O)N[C@@H](CCCCNC(C)=O)C(=O)N[C@@H](CC(N)=O)C(=O)N[C@@H](CC(N)=O)C(N)=O)cc1 |
| 3 to 6 | 2 to 6 | – | 25 to 100 | – | COc1ccc(C[C@H](NC(=O)[C@@H]2CSCC[C@H](NC(C)=O)C(=O)N[C@@H](CCC(N)=O)C(=O)N[C@@H]([C@@H](C)O)C(=O)N[C@@H](Cc3c[nH]c4ccccc34)C(=O)N[C@@H](CCC(N)=O)C(=O)N2)C(=O)N[C@@H](Cc2ccc3ccccc3c2)C(=O)N[C@H](C(=O)N[C@@H](CCCCNC(C)=O)C(=O)N[C@@H](CC(N)=O)C(=O)NCC(N)=O)C2CCCCC2)cc1 |
| > 6 | > 6 | – | – | – | CC(=O)NCCCC[C@H](NC(=O)C(C)(C)NC(=O)[C@H](Cc1ccc2ccccc2c1)NC(=O)[C@H](Cc1ccc(OCCN)cc1)NC(=O)[C@@H](NC(=O)[C@H](CCC(N)=O)NC(=O)[C@H](Cc1c[nH]c2ccccc12)NC(=O)[C@@H](NC(=O)[C@H](CC(N)=O)NC(=O)[C@@H](NC(=O)[C@@H](Cc1ccccc1)NC(C)=O)C(C)(C)S)[C@@H](C)O)C(C)(C)S)C(=O)N[C@@H](CC(N)=O)C(=O)N[C@@H](CC(N)=O)C(N)=O |
| 2 to 3 | 1 to 2 | – | – | – | CC(=O)N[C@@H](Cc1ccccc1)C(=O)N[C@H]1CCSC[C@@H](C(=O)N[C@@H](Cc2ccc(OCCN)cc2)C(=O)N[C@@H](Cc2ccc3ccccc3c2)C(=O)N[C@@](C)(CCCCN)C(=O)N[C@@H](CCC(=O)O)C(=O)N[C@@H](CC(N)=O)C(=O)N[C@@H](CC(N)=O)C(N)=O)NC(=O)[C@H](CCC(N)=O)NC(=O)[C@H](Cc2c[nH]c3ccccc23)NC(=O)[C@H]([C@@H](C)O)NC(=O)[C@H](CCC(N)=O)NC1=O |
| > 6 | 3 to 6 | – | – | – | COc1ccc(C[C@H](NC(=O)[C@@H](NC(=O)[C@H](CCC(N)=O)NC(=O)[C@H](Cc2c[nH]c3ccccc23)NC(=O)[C@@H](NC(=O)[C@H](CC(N)=O)NC(=O)[C@@H](NC(C)=O)C(C)(C)S)[C@@H](C)O)C(C)(C)S)C(=O)N[C@@H](Cc2ccc3ccccc3c2)C(=O)NC2(C(=O)N[C@@H](CCCCNC(C)=O)C(=O)N[C@@H](CC(N)=O)C(=O)N[C@@H](CC(N)=O)C(N)=O)CCCCC2)cc1 |
| 2 to 3 | < 1 | – | – | – | CC(=O)N[C@@H](CCCNC(=N)N)C(=O)N[C@H]1CCSC[C@@H](C(=O)N[C@@H](Cc2ccc(OCCN)cc2)C(=O)N[C@@H](Cc2ccc3ccccc3c2)C(=O)N[C@@](C)(CCCCN)C(=O)N[C@@H](CCC(=O)O)C(=O)N[C@@H](CC(N)=O)C(=O)N[C@@H](CC(N)=O)C(N)=O)NC(=O)[C@H](CCC(N)=O)NC(=O)[C@H](Cc2c[nH]c3ccccc23)NC(=O)[C@H]([C@@H](C)O)NC(=O)[C@H](CCC(N)=O)NC1=O |
| 3 to 6 | > 6 | – | – | – | CC(=O)NCCCC[C@H](NC(=O)C(C)(C)NC(=O)[C@H](Cc1ccc2ccccc2c1)NC(=O)[C@H](Cc1ccc(OCCN)cc1)NC(=O)[C@@H](NC(=O)[C@H](CCC(N)=O)NC(=O)[C@H](Cc1c[nH]c2ccccc12)NC(=O)[C@@H](NC(=O)[C@H](CC(N)=O)NC(=O)[C@@H](NC(=O)[C@@H](Cc1ccccc1)NC(C)=O)C(C)(C)S)[C@@H](C)O)C(C)(C)S)C(=O)N[C@@H](CC(N)=O)C(=O)NCCC(N)=O |
| > 6 | > 6 | – | – | – | CC(=O)NCCCC[C@H](NC(=O)C1(NC(=O)[C@H](Cc2ccc3ccccc3c2)NC(=O)[C@H](Cc2ccc(C(N)=O)cc2)NC(=O)[C@@H](NC(=O)[C@H](CCC(N)=O)NC(=O)[C@H](Cc2c[nH]c3ccccc23)NC(=O)[C@@H](NC(=O)[C@H](CC(N)=O)NC(=O)[C@@H](NC(C)=O)C(C)(C)S)[C@@H](C)O)C(C)(C)S)CCCC1)C(=O)N[C@@H](CC(N)=O)C(=O)N[C@@H](CC(N)=O)C(N)=O |
| 3 to 6 | 1 to 2 | – | 100 to 1000 | – | CC(=O)NCCCC[C@](C)(NC(=O)[C@H](Cc1ccc2ccccc2c1)NC(=O)[C@H](Cc1ccc(OCCNC(C)=O)cc1)NC(=O)[C@@H](NC(=O)[C@H](CCC(N)=O)NC(=O)[C@H](Cc1c[nH]c2ccccc12)NC(=O)[C@@H](NC(=O)[C@](C)(CCCNC(C)=O)NC(=O)[C@@H](NC(C)=O)C(C)(C)S)[C@@H](C)O)C(C)(C)S)C(=O)N[C@@H](CCC(=O)O)C(=O)N[C@@H](CC(N)=O)C(=O)NCC(N)=O |
| > 6 | > 6 | – | – | – | CC(=O)NCCCC[C@H](NC(=O)[C@](C)(CC(C)C)NC(=O)[C@H](Cc1ccc2ccccc2c1)NC(=O)[C@H](Cc1ccc(C(N)=O)cc1)NC(=O)[C@@H](NC(=O)[C@H](CCC(N)=O)NC(=O)[C@H](Cc1c[nH]c2ccccc12)NC(=O)[C@@H](NC(=O)[C@H](CC(N)=O)NC(=O)[C@@H](NC(C)=O)C(C)(C)S)[C@@H](C)O)C(C)(C)S)C(=O)N[C@@H](CC(N)=O)C(=O)N[C@@H](CC(N)=O)C(N)=O |
| – | 3 to 6 | 25 to 100 | 100 to 1000 | 100 to 1000 | CC(=O)N[C@H](C(=O)N[C@@H](CCC(N)=O)C(=O)N[C@H](C(=O)N[C@@H](Cc1c[nH]c2ccccc12)C(=O)N[C@@H](CCC(N)=O)C(=O)N[C@H](C(=O)N[C@@H](Cc1ccc(O)cc1)C(=O)N[C@@H](Cc1c[nH]c2ccccc12)C(=O)N[C@@](C)(CCCN)C(=O)N[C@@H](CCC(=O)O)C(=O)N[C@@H](CC(N)=O)C(=O)NCC(N)=O)C(C)(C)S)[C@@H](C)O)C(C)(C)S |
| – | 3 to 6 | 10 to 25 | 25 to 100 | 100 to 1000 | CC(=O)N[C@H](C(=O)N[C@@H](CCC(N)=O)C(=O)N[C@H](C(=O)N[C@@H](Cc1c[nH]c2ccccc12)C(=O)N[C@@H](CCC(N)=O)C(=O)N[C@H](C(=O)N[C@@H](Cc1ccc(O)cc1)C(=O)N[C@@H](Cc1ccc2ccccc2c1)C(=O)N[C@@](C)(CCCN)C(=O)N[C@@H](CCC(=O)O)C(=O)N[C@@H](CC(N)=O)C(=O)NCC(N)=O)C(C)(C)S)[C@@H](C)O)C(C)(C)S |
| 3 to 6 | > 6 | – | – | – | CC(=O)NCCCC[C@H](NC(=O)C1(NC(=O)[C@H](Cc2ccc3ccccc3c2)NC(=O)[C@H](Cc2ccc(C(N)=O)cc2)NC(=O)[C@@H](NC(=O)[C@H](CCC(N)=O)NC(=O)[C@H](Cc2c[nH]c3ccccc23)NC(=O)[C@@H](NC(=O)[C@H](CC(N)=O)NC(=O)[C@@H](NC(C)=O)C(C)(C)S)[C@@H](C)O)C(C)(C)S)CCOCC1)C(=O)N[C@@H](CC(N)=O)C(=O)N[C@@H](CC(N)=O)C(N)=O |
| > 6 | > 6 | – | – | – | CC(=O)NCCCC[C@H](NC(=O)C1(NC(=O)[C@H](Cc2ccc3ccccc3c2)NC(=O)[C@H](Cc2ccc(C(N)=O)cc2)NC(=O)[C@@H](NC(=O)[C@H](CCC(N)=O)NC(=O)[C@H](Cc2c[nH]c3ccccc23)NC(=O)[C@@H](NC(=O)[C@H](CC(N)=O)NC(=O)[C@@H](NC(C)=O)C(C)(C)S)[C@@H](C)O)C(C)(C)S)CCCCC1)C(=O)N[C@@H](CC(N)=O)C(=O)N[C@@H](CC(N)=O)C(N)=O |
| – | > 6 | < 10 | 10 to 25 | 25 to 100 | COc1ccc(C[C@H](NC(=O)[C@@H]2CSCC[C@H](NC(C)=O)C(=O)N[C@@H](CCC(N)=O)C(=O)N[C@@H]([C@@H](C)O)C(=O)N[C@@H](Cc3c[nH]c4ccccc34)C(=O)N[C@@H](CCC(N)=O)C(=O)N2)C(=O)N[C@@H](Cc2ccc3ccccc3c2)C(=O)NC(C)(C)C(=O)N[C@@H](CCCCNC(C)=O)C(=O)N[C@@H](CC(N)=O)C(=O)NCC(N)=O)cc1 |
| – | < 1 | 25 to 100 | 100 to 1000 | 100 to 1000 | CC(=O)N[C@H]1CCSC[C@@H](C(=O)N[C@@H](Cc2ccc(O)cc2)C(=O)N[C@@H](Cc2c[nH]c3ccccc23)C(=O)N[C@@H](CCCNC(=N)N)C(=O)N[C@@H](CCC(=O)O)C(=O)N[C@@H](CC(N)=O)C(=O)NCC(=O)NCCOCC(=O)N[C@H](CCCCN)C(N)=O)NC(=O)[C@H](CCC(N)=O)NC(=O)[C@H](Cc2c[nH]c3ccccc23)NC(=O)[C@H]([C@@H](C)O)NC(=O)[C@H](CCC(N)=O)NC1=O |
